From US12061202B2, “Compositions and methods for bioluminescent detection using multifunctional probes” (Promega Corporation, priority 2019, dated 2024)

Assays:
Format in all cases: cell-based
K562 cells [1] = assay: Release of labeled proteins from dead cells, NanoBiT bioluminescence (HaloTag-SmBiT/HaloTag-LgBiT), K562; conditions: for Dead/Live at 5,000 cells/well: final labeling probe concentration 5 μM; for Dead, RLUs: dead (digitonin treated) cells; for Live, RLUs: live cells; for Dead/Live: ratio after background subtraction
Protocol: (§1) Next, the bifunctional labeling probe was thawed at room temperature and mixed. The probe was generally contained in DMSO. The bifunctional probe was added to the cells at a final concentration between about 0.5-10 μM. The cells were then mixed by gently pipetting and incubated for 30 minutes at 37° C. To inactivate unreactive free labeling probe, a 10× volume of pre-warmed (37° C.) cell culture medium containing 10% FBS was added, and the cells incubated for additional 5 minutes. The labeled cells were then spun down, and the labeling media removed. The cells were resuspended in fresh cell culture media at the concentration required for the experiment.
(§2) In some embodiments, one or more components of the NanoBiT® system can be used for measuring cell death of pre-labeled cell population in mixed cell cultures. Here, an exemplary protocol is described for using this assay in 96-well plates in […]: 50 μl of sample+50 μl of Detection Reagent+25 μl of Nano-Glo® Luciferase Assay substrate.
(§3) Labeled cells (1,250-10,000 cells/well) were plated with experimental treatment conditions (e.g., drug, effector cells, etc.) in 50 μl of appropriate medium. Wells without cells were included as negative controls to determine background luminescence in the media. Separate wells were included with pre-labeled cells for determining maximum release of labeled proteins. Detection Reagents were assembled: about 1 ml of Detection Reagent buffer (2×) was combined with about 1.25 μl of Detection Component 1 and 1.25 μl of Detection Component 2. If maximum release determination was needed, the required amount of prepared Detection Reagent (50 μl/per sample) was removed, and digitonin at 0.12 mg/ml concentration added (for example, add 6 μl to 1 ml of Detection Reagent).
(§4) About 50 μl of prepared Detection Reagent was added into all assay wells and negative (media) control wells. Detection Reagent with Digitonin was added into control wells for determining maximum release. The cells were placed into a tissue culture incubator, and the treatment continued up to 24 hours. Nano-Glo® Luciferase Assay Substrate was prepared by diluting (1:50) substrate into assay medium. The assay plate was then removed from the tissue culture incubator and equilibrated to room temperature for about 5 mins. About 25 μL of prepared substrate was added to the assay wells, mixed, and luminescence was read.
(§5) No labeling control was included for toxicity evaluation. After labeling, the cells were resuspended in appropriate medium, counted, and plated into wells of a 96-well plate at two-fold serial dilution starting from 20,000 cells/well. The Detection Reagents with or without digitonin were added as described above, and the plates were placed into a tissue culture incubator. After incubation, Nano-Glo® Luciferase Assay substrate was added to the samples, and luminescence was read. After reading luminescence, an equal volume of CellTiter-Glo was added to the samples to measure changes in viability. […] The linear range of the assay is underlined. Dead/Live is the ratio between luminescence signal of dead and live cells calculated after assay background subtraction (media control).

Raji cells [2] = assay: Release of labeled proteins from dead cells, NanoBiT bioluminescence, Raji; conditions: for Dead/Live at 5,000 cells/well: final labeling probe concentration 2 μM; for Dead, RLUs: dead (digitonin treated) cells; for Live, RLUs: live cells; for Dead/Live: ratio after background subtraction
Protocol: as §1, §2, §3, §4, §5

HCT116 = assay: Release of labeled proteins from dead cells, NanoBiT bioluminescence, HCT116; conditions: final labeling probe concentration 10 μM
Protocol: as §1
(§6) In some embodiments, one or more components of the NanoBiT® system can be used for measuring cell death of pre-labeled cell population in mixed cell cultures. […]
(§7) Labeled cells (1,250-10,000 cells/well) were plated with experimental treatment conditions (e.g., drug, effector cells, etc.) in 50 μl of appropriate medium. Wells without cells were included as negative controls to determine background luminescence in the media. […]
(§8) About 50 μl of prepared Detection Reagent was added into all assay wells and negative (media) control wells. […] About 25 μL of prepared substrate was added to the assay wells, mixed, and luminescence was read.

A431 = assay: Release of labeled proteins from dead cells, NanoBiT bioluminescence, A431; conditions: final labeling probe concentration 10 μM
Protocol: as §1, §6, §7, §8

K562 cells [3] = assay: Cell viability after labeling, CellTiter-Glo, K562; conditions: labeled at 2 and 5 μM
Protocol: (§9) For assay optimization, labeling the cells at different probe concentrations and setting up cell titration curves can be advantageous. To evaluate effect of labeling on cell viability, different viability/toxicity assays can also be used. Here, an example of assay optimization is provided using Raji and K562 cells. […] However, labeling efficiency, toxicity, assay linearity, and assay window differed depending on the cell line and labeling conditions. […] Labeling K562 at 2 μM extended linear range of the assay up to 20,000 cells/well, however assay window decreased from 18-fold to 7-8-fold.
as §5

Raji cells [4] = assay: Cell viability after labeling, CellTiter-Glo, Raji
Protocol: as §9, §5

## O=C(NCCOCCOCCCCCCCl)c1ccc(C(=O)ON2C(=O)CCC2=O)cc1 [Labeling Probe, 2,5-dioxopyrrolidin-1-yl 4-((2-(2-((6-chlorohexyl)oxy)ethoxy)ethyl)carbamoyl)benzoate]
K562 cells [1]; at 4 h
  Dead/Live at 5,000 cells/well: 18.3
K562 cells [1]; at 24 h
  Dead/Live at 5,000 cells/well: 19.0
K562 cells [1]; labeling at 2 μM
  assay window: 7-8 fold
K562 cells [1]; labeling at 5 μM
  assay window: 18 fold
K562 cells [1]; probe 2 μM, 1,250 cells/well
  Dead, RLUs: 69,663 RLUs
  Live, RLUs: 37,113 RLUs
  Dead/Live: 5.0
K562 cells [1]; probe 2 μM, 2,500 cells/well
  Dead, RLUs: 88,448 RLUs
  Live, RLUs: 40,600 RLUs
  Dead/Live: 5.2
K562 cells [1]; probe 2 μM, 5,000 cells/well
  Dead, RLUs: 114,346 RLUs
  Live, RLUs: 42,059 RLUs
  Dead/Live: 7.6
K562 cells [1]; probe 2 μM, 10,000 cells/well
  Dead, RLUs: 154,018 RLUs
  Live, RLUs: 47,861 RLUs
  Dead/Live: 7.3
K562 cells [1]; probe 2 μM, 20,000 cells/well
  Dead, RLUs: 192,283 RLUs
  Live, RLUs: 51,528 RLUs
  Dead/Live: 7.9
K562 cells [1]; probe 5 μM, 1,250 cells/well
  Dead, RLUs: 236,022 RLUs
  Live, RLUs: 43,298 RLUs
  Dead/Live: 18.1
K562 cells [1]; probe 5 μM, 2,500 cells/well
  Dead, RLUs: 373,598 RLUs
  Live, RLUs: 50,284 RLUs
  Dead/Live: 18.7
K562 cells [1]; probe 5 μM, 5,000 cells/well
  Dead, RLUs: 591,060 RLUs
  Live, RLUs: 60,873 RLUs
  Dead/Live: 19.4
K562 cells [1]; probe 5 μM, 10,000 cells/well
  Dead, RLUs: 620,751 RLUs
  Live, RLUs: 76,596 RLUs
  Dead/Live: 13.1
K562 cells [1]; probe 5 μM, 20,000 cells/well
  Dead, RLUs: 477,185 RLUs
  Live, RLUs: 78,093 RLUs
  Dead/Live: 9.4
K562 cells [1]; within the linear range of the assay
  increase in light output in live cells as compared to media control: less than 2 fold
Raji cells [2]; at 4 h
  Dead/Live at 5,000 cells/well: 35.4
Raji cells [2]; at 24 h
  Dead/Live at 5,000 cells/well: 21.7
Raji cells [2]; labeling concentration 1 μM
  assay window: > 5 fold
Raji cells [2]; labeling with 5 μM
  increase in luminescence signal in live cells from media only control: > 2 fold
Raji cells [2]; probe 1 μM, 1,250 cells/well
  Dead, RLUs: 112,901 RLUs
  Live, RLUs: 71,937 RLUs
  Dead/Live: 6.0
Raji cells [2]; probe 1 μM, 2,500 cells/well
  Dead, RLUs: 164,403 RLUs
  Live, RLUs: 78,455 RLUs
  Dead/Live: 6.8
Raji cells [2]; probe 1 μM, 5,000 cells/well
  Dead, RLUs: 257,879 RLUs
  Live, RLUs: 88,466 RLUs
  Dead/Live: 7.9
Raji cells [2]; probe 1 μM, 10,000 cells/well
  Dead, RLUs: 403,731 RLUs
  Live, RLUs: 107,531 RLUs
  Dead/Live: 7.8
Raji cells [2]; probe 1 μM, 20,000 cells/well
  Dead, RLUs: 731,355 RLUs
  Live, RLUs: 134,572 RLUs
  Dead/Live: 9.4
Raji cells [2]; probe 5 μM, 1,250 cells/well
  Live, RLUs: 210,695 RLUs
  Dead/Live: 7.7
Raji cells [2]; probe 5 μM, 2,500 cells/well
  Dead, RLUs: 2,179,562 RLUs
  Live, RLUs: 317,452 RLUs
  Dead/Live: 8.2
Raji cells [2]; probe 5 μM, 5,000 cells/well
  Dead, RLUs: 3,826,655 RLUs
  Live, RLUs: 508,581 RLUs
  Dead/Live: 8.4
Raji cells [2]; probe 5 μM, 10,000 cells/well
  Dead, RLUs: 4,916,472 RLUs
  Live, RLUs: 672,232 RLUs
  Dead/Live: 7.9
Raji cells [2]; probe 5 μM, 20,000 cells/well
  Dead, RLUs: 3,314,700 RLUs
  Live, RLUs: 645,489 RLUs
  Dead/Live: 5.6
HCT116; at 4 h
  Dead/Live at 5,000 cells/well: 8.1
HCT116; at 24 h
  Dead/Live at 5,000 cells/well: 6.7
A431; at 4 h
  Dead/Live at 5,000 cells/well: 7.4
A431; at 24 h
  Dead/Live at 5,000 cells/well: 6.2
K562 cells [3]
  cell viability measured with CellTiter-Glo: no decrease in cell viability
Raji cells [4]; labeling concentration 1 μM
  effect on cell viability: without significant effect on cell viability
Raji cells [4]; labeling with 5 μM
  decrease in cell viability as measured by CellTiter-Glo: more than 40%
